Where two headings read alike, the source gives them in different places.
What was measured:
[1] = phase I two-part drug-drug interaction study, plasma pharmacokinetics (Example 1); type: in vivo, human; conditions: male, human, plasma, oral
Source text: The secondary objective was to provide additional information on the safety and tolerability of this dose regimen in healthy males.
This was a single center, non-randomized, DDI study in 35 (Part 1) and 38 (Part 2) healthy males. The key inclusion criterion was males aged 18 to 55 years (inclusive). […] In Part 2, co-administration with omeprazole was studied. The study design is illustrated in FIG. 1.
At least a 2-to 8-day washout occurred between each period to account for a minimum of 5 half-lives of the active moieties dosed in the preceding period.
Blood samples were collected into 6 mL K,EDTA tubes and were processed within 30 minutes of collection. The resultant plasma was then frozen within 90 minutes of collection and stored at […] until shipment to the bioanalytical laboratory.
For each comparison, PK parameters were natural log transformed and analyzed using mixed effect modeling with treatment included as a fixed effect and subject as a random effect. Adjusted geometric mean ratios (GMRs) and corresponding 90% CIs were calculated.

rats = test: combined male and female rat fertility study; type: in vivo
Source text: In a combined male and female rat fertility study, belumosudil-treated male animals were mated with untreated females, or untreated males were mated with belumosudil-treated females.

CYP2D6 = CYP2D6 (Homo sapiens, UniProt P10635); test: incubations with recombinant enzymes; type: in vitro ADME
Chain of CYP2D6 (P10635 whole entry): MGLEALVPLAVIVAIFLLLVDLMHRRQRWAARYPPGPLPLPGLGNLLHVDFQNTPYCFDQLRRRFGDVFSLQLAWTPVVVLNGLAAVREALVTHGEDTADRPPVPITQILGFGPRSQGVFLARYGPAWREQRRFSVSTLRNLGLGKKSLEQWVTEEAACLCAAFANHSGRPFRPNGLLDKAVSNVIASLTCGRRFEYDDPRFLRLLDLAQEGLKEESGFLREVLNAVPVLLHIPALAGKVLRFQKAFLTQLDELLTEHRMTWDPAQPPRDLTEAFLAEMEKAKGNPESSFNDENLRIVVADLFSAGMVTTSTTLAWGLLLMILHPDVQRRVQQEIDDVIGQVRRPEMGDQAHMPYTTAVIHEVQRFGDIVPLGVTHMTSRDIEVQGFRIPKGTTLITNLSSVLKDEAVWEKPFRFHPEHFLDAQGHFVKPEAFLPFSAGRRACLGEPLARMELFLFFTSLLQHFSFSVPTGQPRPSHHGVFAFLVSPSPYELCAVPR

CC(C)NC(=O)COc1cccc(-c2nc(Nc3ccc4[nH]ncc4c3)c3ccccc3n2)c1 [Belumosudil, 2-{3-[4-(1H-indazol-5-ylamino)-2-quinazolinyl]phenoxy}-N-(propan-2-yl) acetamide]
Tmax ([1]; 200 mg belumosudil single dose + itraconazole, read-out: Tmax, median (range)): 3 h | half-life ([1]; 200 mg belumosudil single dose + itraconazole, read-out: t1/2, arithmetic mean (SD) (converted)): 8.79 h | half-life ([1]; 200 mg belumosudil single dose + itraconazole, read-out: t1/2, geometric mean (geometric CV %) (converted)): 8.27 h | AUC from 0 to 24 h ([1]; 200 mg belumosudil single dose + rabeprazole, read-out: AUC0-24, arithmetic mean (SD)): 1730 ng·h/mL | AUC from 0 to 24 h ([1]; 200 mg belumosudil single dose + rabeprazole, read-out: AUC0-24, geometric mean (geometric CV %)): 1510 ng·h/mL | AUC(0-inf) ([1]; 200 mg belumosudil single dose + rabeprazole, read-out: AUCinf, arithmetic mean (SD)): 1940 ng·h/mL | AUC(0-inf) ([1]; 200 mg belumosudil single dose + rabeprazole, read-out: AUCinf, geometric mean (geometric CV %)): 1680 ng·h/mL | AUC(0-t) ([1]; 200 mg belumosudil single dose + rabeprazole, read-out: AUClast, arithmetic mean (SD)): 1850 ng·h/mL | AUC(0-t) ([1]; 200 mg belumosudil single dose + rabeprazole, read-out: AUClast, geometric mean (geometric CV %)): 1580 ng·h/mL | Cmax ([1]; 200 mg belumosudil single dose + rabeprazole, read-out: Cmax, arithmetic mean (SD)): 262 ng/mL | Cmax ([1]; 200 mg belumosudil single dose + rabeprazole, read-out: Cmax, geometric mean (geometric CV %)): 227 ng/mL | Tmax ([1]; 200 mg belumosudil single dose + rabeprazole, read-out: Tmax, median (range)): 5 h | half-life ([1]; 200 mg belumosudil single dose + rabeprazole, read-out: t1/2, arithmetic mean (SD) (converted)): 10.4 h | half-life ([1]; 200 mg belumosudil single dose + rabeprazole, read-out: t1/2, geometric mean (geometric CV %) (converted)): 7.8 h | AUC from 0 to 24 h ([1]; 200 mg belumosudil single dose + rifampicin, read-out: AUC0-24, arithmetic mean (SD)): 2630 ng·h/mL | AUC from 0 to 24 h ([1]; 200 mg belumosudil single dose + rifampicin, read-out: AUC0-24, geometric mean (geometric CV %)): 2490 ng·h/mL | AUC(0-inf) ([1]; 200 mg belumosudil single dose + rifampicin, read-out: AUCinf, arithmetic mean (SD)): 2640 ng·h/mL | AUC(0-inf) ([1]; 200 mg belumosudil single dose + rifampicin, read-out: AUCinf, geometric mean (geometric CV %)): 2500 ng·h/mL | AUC(0-t) ([1]; 200 mg belumosudil single dose + rifampicin, read-out: AUClast, arithmetic mean (SD)): 2580 ng·h/mL | AUC(0-t) ([1]; 200 mg belumosudil single dose + rifampicin, read-out: AUClast, geometric mean (geometric CV %)): 2440 ng·h/mL | Cmax ([1]; 200 mg belumosudil single dose + rifampicin, read-out: Cmax, arithmetic mean (SD)): 753 ng/mL | Cmax ([1]; 200 mg belumosudil single dose + rifampicin, read-out: Cmax, geometric mean (geometric CV %)): 712 ng/mL | Tmax ([1]; 200 mg belumosudil single dose + rifampicin, read-out: Tmax, median (range)): 3 h | half-life ([1]; 200 mg belumosudil single dose + rifampicin, read-out: t1/2, arithmetic mean (SD) (converted)): 2.36 h | half-life ([1]; 200 mg belumosudil single dose + rifampicin, read-out: t1/2, geometric mean (geometric CV %) (converted)): 2.17 h | Cmax ([1]; 200 mg, 200 mg belumosudil BID alone, first dose, read-out: Cmax, arithmetic mean (SD)): 1880 ng/mL | Cmax ([1]; 200 mg, 200 mg belumosudil BID alone, first dose, read-out: Cmax, geometric mean (geometric CV %)): 1790 ng/mL | Tmax ([1]; 200 mg, 200 mg belumosudil BID alone, first dose, read-out: Tmax, median (range)): 3 h | Cmax ([1]; 200 mg, 200 mg belumosudil BID alone, second dose, read-out: Cmax, arithmetic mean (SD)): 1870 ng/mL | Cmax ([1]; 200 mg, 200 mg belumosudil BID alone, second dose, read-out: Cmax, geometric mean (geometric CV %)): 1760 ng/mL | Tmax ([1]; 200 mg, 200 mg belumosudil BID alone, second dose, read-out: Tmax, median (range)): 15 h | AUC from 0 to 24 h ([1]; 200 mg, 200 mg belumosudil BID alone, read-out: AUC0-24, arithmetic mean (SD)): 17900 ng·h/mL | AUC from 0 to 24 h ([1]; 200 mg, 200 mg belumosudil BID alone, read-out: AUC0-24, geometric mean (geometric CV %)): 16800 ng·h/mL | AUC(0-inf) ([1]; 200 mg, 200 mg belumosudil BID alone, read-out: AUCinf, arithmetic mean (SD)): 20100 ng·h/mL | AUC(0-inf) ([1]; 200 mg, 200 mg belumosudil BID alone, read-out: AUCinf, geometric mean (geometric CV %)): 18800 ng·h/mL | AUC(0-t) ([1]; 200 mg, 200 mg belumosudil BID alone, read-out: AUClast, arithmetic mean (SD)): 20300 ng·h/mL | AUC(0-t) ([1]; 200 mg, 200 mg belumosudil BID alone, read-out: AUClast, geometric mean (geometric CV %)): 18900 ng·h/mL | half-life ([1]; 200 mg, 200 mg belumosudil BID alone, read-out: t1/2, arithmetic mean (SD) (converted)): 7.15 h | half-life ([1]; 200 mg, 200 mg belumosudil BID alone, read-out: t1/2, geometric mean (geometric CV %) (converted)): 6.86 h | AUC from 0 to 24 h ([1]; 200 mg, 200 mg belumosudil single dose alone, read-out: AUC0-24, arithmetic mean (SD)): 8830 ng·h/mL | AUC from 0 to 24 h ([1]; 200 mg, 200 mg belumosudil single dose alone, read-out: AUC0-24, geometric mean (geometric CV %)): 8430 ng·h/mL | AUC(0-inf) ([1]; 200 mg, 200 mg belumosudil single dose alone, read-out: AUCinf, arithmetic mean (SD)): 9580 ng·h/mL | AUC(0-inf) ([1]; 200 mg, 200 mg belumosudil single dose alone, read-out: AUCinf, geometric mean (geometric CV %)): 9080 ng·h/mL | AUC(0-t) ([1]; 200 mg, 200 mg belumosudil single dose alone, read-out: AUClast, arithmetic mean (SD)): 9220 ng·h/mL | AUC(0-t) ([1]; 200 mg, 200 mg belumosudil single dose alone, read-out: AUClast, geometric mean (geometric CV %)): 8750 ng·h/mL | Cmax ([1]; 200 mg, 200 mg belumosudil single dose alone, read-out: Cmax, arithmetic mean (SD)): 1850 ng/mL | Cmax ([1]; 200 mg, 200 mg belumosudil single dose alone, read-out: Cmax, geometric mean (geometric CV %)): 1770 ng/mL | Tmax ([1]; 200 mg, 200 mg belumosudil single dose alone, read-out: Tmax, median (range)): 3 h | half-life ([1]; 200 mg, 200 mg belumosudil single dose alone, read-out: t1/2, arithmetic mean (SD) (converted)): 9.28 h | half-life ([1]; 200 mg, 200 mg belumosudil single dose alone, read-out: t1/2, geometric mean (geometric CV %) (converted)): 7.89 h | Tmax ([1]; coadministration of rabeprazole, read-out: delay of median Tmax): 2 h | dose with increased pre-or post-implantation loss and decreased number of viable embryos (rats; female rats, treated or mated with treated males): 275 mg/kg/day | dose with abnormal sperm findings and testes/epididymis organ changes (rats; male rats): 275 mg/kg/day | dose with reduced fertility (rats; treated males or females): 275 mg/kg/day | share of belumosudil metabolism (CYP2D6): 21.7%
